For assay [1], the target named is T1, GST fusion human ERK2 protein (Homo sapiens, UniProt P28482).
T1 construct: purchased Carna Biosciences, Inc; host or cells: E. coli expression system
Kind of assay: ERK2 enzyme assay (2). Type of assay: biochemical. As to conditions: ERK2 enzyme assay (2); read-out: ERK2 enzyme inhibitory activity (2). The procedure, abridged:
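GST-tagged human ERK2 expressed in E. coli (1.25 nmol/L) was preincubated with compound for 15 min at room temperature in pH 7.5 Hepes buffer with MgCl2, DTT and Brij35. Reaction with FL-Peptide 8 (final 4.25 μmol/L) and ATP (final 1 mmol/L) ran 120 min at 25 °C; EDTA stopped it, and phosphorylated peptide was quantified by mobility-shift separation to derive IC50.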

Another assay has as its system CHO-K1 cells. Kind of assay: CHO cell toxicity test. As to conditions: Cricetulus griseus, read-out: IC50 value (concentration at which the number of viable cells was suppressed to 50% or less). Type of assay: cell-based, Chinese hamster. The procedure, abridged: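 CHO-K1 cells were cultured 24 h, then exposed 24 h to compound at final 25.00 to 0.20 μmol/L in F-12 with 2% FCS. Viability read by CellTiter-Glo luminescence; inhibition % = 100 − (treated/untreated signal)×100.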

A further assay has as its target T2, human PI3Kα protein (Homo sapiens, UniProt P42336).
T2 construct: purchased Carna Biosciences, Inc; host or cells: baculovirus expression system
Nature of the assay: PI3Kα enzyme assay (ADP-Glo). Type of assay: biochemical. The settings on record: read-out: PI3Kα enzyme inhibitory activity. Summed up:
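Biotinylated human PI3Kα (baculovirus-expressed, 4.5 nmol/L) pre-incubated 15 min with compound in Tris-HCl pH 7.5, MgCl2, BSA; reaction 60 min at 25° C with 50 μmol/L PIP2 and 100 μmol/L ATP final. ADP quantified by ADP-Glo luminescence; IC50 calculated.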
In general terms: ADP-Glo first removes unused ATP, then detects ADP through luciferase.

Setting [2] is: CHO-K1 cells, 24 hours culture with compound, CellTiter-Glo.

Read-outs that look alike come from different tables or passages of the source. A value given as a limit tells only on which side of the number the result lay.

T1 sequence (P28482 whole entry, the tested form may be a part): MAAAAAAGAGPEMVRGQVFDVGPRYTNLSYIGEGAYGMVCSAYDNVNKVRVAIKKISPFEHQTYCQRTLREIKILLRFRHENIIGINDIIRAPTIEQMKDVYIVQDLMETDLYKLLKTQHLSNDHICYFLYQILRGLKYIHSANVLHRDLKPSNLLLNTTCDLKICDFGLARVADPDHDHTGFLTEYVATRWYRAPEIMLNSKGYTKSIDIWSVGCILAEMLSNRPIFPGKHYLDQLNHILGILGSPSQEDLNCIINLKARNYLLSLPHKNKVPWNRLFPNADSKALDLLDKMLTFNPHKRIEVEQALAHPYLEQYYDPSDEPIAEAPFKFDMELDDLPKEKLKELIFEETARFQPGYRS
T2 sequence (P42336 whole entry): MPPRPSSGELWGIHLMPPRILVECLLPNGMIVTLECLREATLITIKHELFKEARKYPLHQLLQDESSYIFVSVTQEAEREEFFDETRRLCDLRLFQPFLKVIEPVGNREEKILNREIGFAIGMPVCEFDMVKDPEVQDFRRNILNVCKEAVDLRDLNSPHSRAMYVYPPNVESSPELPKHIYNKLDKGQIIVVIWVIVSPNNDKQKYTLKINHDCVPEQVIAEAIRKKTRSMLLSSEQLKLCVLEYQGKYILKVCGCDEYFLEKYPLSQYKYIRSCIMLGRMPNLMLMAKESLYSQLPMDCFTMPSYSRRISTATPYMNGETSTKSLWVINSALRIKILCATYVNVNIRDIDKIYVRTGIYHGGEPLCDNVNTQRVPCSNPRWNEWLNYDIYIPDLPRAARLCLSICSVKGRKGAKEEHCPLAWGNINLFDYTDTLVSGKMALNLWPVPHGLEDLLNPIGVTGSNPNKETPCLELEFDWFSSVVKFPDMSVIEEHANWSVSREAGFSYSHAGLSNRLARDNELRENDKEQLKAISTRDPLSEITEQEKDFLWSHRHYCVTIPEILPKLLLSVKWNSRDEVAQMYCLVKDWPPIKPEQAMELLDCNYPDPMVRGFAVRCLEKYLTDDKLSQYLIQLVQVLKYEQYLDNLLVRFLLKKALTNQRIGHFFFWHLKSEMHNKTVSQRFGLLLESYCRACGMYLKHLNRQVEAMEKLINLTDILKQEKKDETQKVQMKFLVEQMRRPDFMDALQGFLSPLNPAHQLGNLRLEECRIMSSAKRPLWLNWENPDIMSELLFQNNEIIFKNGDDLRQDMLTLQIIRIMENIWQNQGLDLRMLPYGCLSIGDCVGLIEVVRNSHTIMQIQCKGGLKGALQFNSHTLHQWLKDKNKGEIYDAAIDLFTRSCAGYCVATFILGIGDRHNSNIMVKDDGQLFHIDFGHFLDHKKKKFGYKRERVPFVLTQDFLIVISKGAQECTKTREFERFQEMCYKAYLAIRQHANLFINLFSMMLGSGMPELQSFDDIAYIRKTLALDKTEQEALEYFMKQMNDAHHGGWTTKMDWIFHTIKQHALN
T2 sequence (P27986 whole entry partner): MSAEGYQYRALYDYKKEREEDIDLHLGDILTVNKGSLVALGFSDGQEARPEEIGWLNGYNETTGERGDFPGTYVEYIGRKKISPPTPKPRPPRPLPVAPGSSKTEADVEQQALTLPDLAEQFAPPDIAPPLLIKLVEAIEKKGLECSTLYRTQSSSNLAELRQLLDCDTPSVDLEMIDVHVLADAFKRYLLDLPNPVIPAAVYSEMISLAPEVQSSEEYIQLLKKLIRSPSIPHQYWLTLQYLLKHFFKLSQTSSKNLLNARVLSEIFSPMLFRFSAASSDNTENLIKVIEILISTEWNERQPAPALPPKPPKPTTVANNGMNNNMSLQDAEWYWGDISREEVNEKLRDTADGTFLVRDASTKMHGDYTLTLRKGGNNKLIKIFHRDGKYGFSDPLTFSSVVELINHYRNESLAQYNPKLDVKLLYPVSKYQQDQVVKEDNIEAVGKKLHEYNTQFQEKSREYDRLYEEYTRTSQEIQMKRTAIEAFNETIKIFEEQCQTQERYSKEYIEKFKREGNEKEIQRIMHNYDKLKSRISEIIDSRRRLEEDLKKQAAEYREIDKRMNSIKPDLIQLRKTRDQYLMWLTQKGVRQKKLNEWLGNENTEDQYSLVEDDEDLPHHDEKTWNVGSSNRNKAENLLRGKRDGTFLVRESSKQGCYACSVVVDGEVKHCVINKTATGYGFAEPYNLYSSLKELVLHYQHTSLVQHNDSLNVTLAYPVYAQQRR

For `CC(C)c1cnnc(Nc2ccc3ncc(-c4cnn(CCCN5CCOC(CO)C5)c4)cc3n2)c1` (stereo not drawn) [Example 0678], the IC50 was < 1 µM in assay [1], ≥ 25 µM with CHO-K1 cells (setting [2]) and < 1 µM on human PI3Kα protein.
As for `COCC1CN(CCCn2cc(-c3cnc4ccc(Nc5cc(C(C)C)cnn5)nc4c3)cn2)CCO1` (stereo not drawn) [Example 0679], the IC50 in assay [1] is < 1 µM; in the assay with CHO-K1 cells (setting [2]), ≥ 25 µM; on human PI3Kα protein it was < 1 µM.
Consider `CC(=O)NC1CN(CCCn2cc(-c3cnc4ccc(Nc5cc(C(C)C)cnn5)nc4c3)cn2)C1` [Example 0682, N-(1-(3-(4-(6-((5-isopropylpyridazin-3-yl)amino)-1,5-naphthyridin-3-yl)-1H-pyrazol-1-yl)propyl)azetidin-3-yl)acetamide], for which the figures for the IC50 (in assay [1]; in the assay on CHO-K1 cells (setting [2]); at human PI3Kα protein) were < 1 µM, ≥ 25 µM and < 1 µM, respectively.
`CC(C)c1cnnc(Nc2ccc3ncc(-c4cnn(CCCN5CCOCC5CO)c4)cc3n2)c1` (stereo not drawn) [Example 0685]: the figures for the IC50 (in assay [1]; in the assay with CHO-K1 cells (setting [2]); on human PI3Kα protein) were < 1 µM, ≥ 25 µM and < 1 µM, respectively.
For `CC(C)c1cnnc(Nc2ccc3ncc(-c4cnn(CCCN5CC(C#N)C5)c4)cc3n2)c1` [Example 0686], the IC50 in assay [1] is < 1 µM; in the assay with CHO-K1 cells (setting [2]) it was ≥ 25 µM; on human PI3Kα protein, < 1 µM.
Regarding `CNC(=O)C1CN(CCCn2cc(-c3cnc4ccc(Nc5cc(C(C)C)cnn5)nc4c3)cn2)C1` [Example 0687, 1-(3-(4-(6-((5-Isopropylpyridazin-3-yl)amino)-1,5-naphthyridin-3-yl)-1H-pyrazol-1-yl)propyl)-N-methylazetidine-3-carboxamide], the IC50 was < 1 µM in assay [1], ≥ 25 µM in the assay on CHO-K1 cells (setting [2]) and < 1 µM at human PI3Kα protein.
Consider `CC(C)c1cnnc(Nc2ccc3ncc(-c4cnn(CCCN5CC(C(=O)N(C)C)C5)c4)cc3n2)c1` [Example 0688], for which the IC50 in assay [1] is < 1 µM; in the assay on CHO-K1 cells (setting [2]), ≥ 25 µM; on human PI3Kα protein it was < 1 µM.
Regarding `COCC1COCCN1CCCn1cc(-c2cnc3ccc(Nc4cc(C(C)C)cnn4)nc3c2)cn1` (stereo not drawn) [Example 0691], the figures for the IC50 (in assay [1]; in the assay with CHO-K1 cells (setting [2]); on human PI3Kα protein) were < 1 µM, ≥ 25 µM and < 1 µM, respectively.
Turning to `CC(C)c1cnnc(Nc2ccc3ncc(-c4cnn(CCCN5CC(F)C5)c4)cc3n2)c1` [Example 0694, 7-(1-(3-(3-Fluoroazetidin-1-yl)propyl)-1H-pyrazol-4-yl)-N-(5-isopropylpyridazin-3-yl)-1,5-naphthyridine-2-amine], the IC50 in assay [1] is < 1 µM; with CHO-K1 cells (setting [2]) it was ≥ 25 µM; at human PI3Kα protein, < 1 µM.
For the compound `CC(C)c1cnnc(Nc2ccc3ncc(-c4cnn(CCCN5CC(N)C5)c4)cc3n2)c1` [Example 0695, 7-(1-(3-(3-aminoazetidin-1-yl)propyl)-1H-pyrazol-4-yl)-N-(5-isopropylpyridazin-3-yl)-1,5-naphthyridine-2-amine], the IC50 is < 1 µM in assay [1], ≥ 25 µM with CHO-K1 cells (setting [2]) and < 1 µM at human PI3Kα protein.
For the compound `CC(C)c1cnnc(Nc2ccc3ncc(-c4cnn(CCCN5CC(NS(C)(=O)=O)C5)c4)cc3n2)c1` [Example 0697], the IC50 was < 1 µM in assay [1], ≥ 25 µM in the assay on CHO-K1 cells (setting [2]) and < 1 µM on human PI3Kα protein.
Turning to `CC(C)c1cnnc(Nc2ccc3ncc(-c4cnn(Cc5cccc(N)c5)c4)cc3n2)c1` [Example 0712, 7-(1-(3-Aminobenzyl)-1H-pyrazol-4-yl)-N-(5-isopropylpyridazin-3-yl)-1,5-naphthyridine-2-amine], the IC50 in assay [1] was < 1 µM; in the assay with CHO-K1 cells (setting [2]) it was ≥ 25 µM; on human PI3Kα protein, < 1 µM.
Regarding `CC(C)c1cnnc(Nc2ccc3ncc(-c4cnn(CCCN5CCN(C)C(=O)C5)c4)cc3n2)c1` [Example 0723, 4-(3-(4-(6-((5-isopropylpyridazin-3-yl)amino)-1,5-naphthyridin-3-yl)-1H-pyrazol-1-yl)propyl)-1-methylpiperazin-2-one], the IC50 in assay [1] was < 1 µM; with CHO-K1 cells (setting [2]), ≥ 25 µM; at human PI3Kα protein it was < 1 µM.
With `CC(C)c1cnnc(Nc2ccc3ncc(-c4cnn(CC(O)CN5CCCC5)c4)cc3n2)c1` (stereo not drawn) [Example 0724, 1-(4-(6-((5-Isopropylpyridazin-3-yl)amino)-1,5-naphthyridin-3-yl)-1H-pyrazol-1-yl)-3-(pyrrolidin-1-yl)propan-2-ol], the figures for the IC50 (in assay [1]; in the assay on CHO-K1 cells (setting [2]); on human PI3Kα protein) were < 1 µM, ≥ 25 µM and < 1 µM, respectively.
As to `COC(CN1CCCC1)Cn1cc(-c2cnc3ccc(Nc4cc(C(C)C)cnn4)nc3c2)cn1` (stereo not drawn) [Example 0725, N-(5-isopropylpyridazin-3-yl)-7-(1-(2-methoxy-3-(pyrrolidin-1-yl)propyl)-1H-pyrazol-4-yl)-1,5-naphthyridine-2-amine], the IC50 in assay [1] was < 1 µM; in the assay on CHO-K1 cells (setting [2]) it was ≥ 25 µM; on human PI3Kα protein, < 1 µM.
`CC(C)c1cnnc(Nc2ccc3ncc(-c4cnn(CC(F)CN5CCOCC5)c4)cc3n2)c1` (stereo not drawn) [Example 0733]: the IC50 was < 1 µM in assay [1], ≥ 25 µM in the assay with CHO-K1 cells (setting [2]) and < 1 µM on human PI3Kα protein.
Consider `Cc1ncccc1-c1nn(C)cc1-c1cnc2ccc(Nc3cc(C(C)C)cnn3)nc2c1` [Example 0737], for which the IC50 in assay [1] was < 1 µM; in the assay with CHO-K1 cells (setting [2]), ≥ 25 µM; at human PI3Kα protein, < 1 µM.
For the compound `Cc1cc(-c2nn(C)cc2-c2cnc3ccc(Nc4cc(C(C)C)cnn4)nc3c2)ccn1` [Example 0738], the IC50 is < 1 µM in assay [1], ≥ 25 µM with CHO-K1 cells (setting [2]) and < 1 µM at human PI3Kα protein.
As for `CCc1cnnc(Nc2ccc3ncc(-c4cn(C)nc4C)cc3n2)c1` [Example 0756, 7-(1,3-Dimethyl-1H-pyrazol-4-yl)-N-(5-ethylpyridazin-3-yl)-1,5-naphthyridine-2-amine], the results for the IC50 (in assay [1]; with CHO-K1 cells (setting [2]); on human PI3Kα protein) were < 1 µM, ≥ 25 µM and < 1 µM, respectively.
Regarding `Cc1nn(C)cc1-c1cnc2ccc(Nc3cc(C(C)C)cnn3)nc2c1` [Example 0757, 7-(1,3-dimethyl-1H-pyrazol-4-yl)-N-(5-isopropylpyridazin-3-yl)-1,5-naphthyridine-2-amine], the IC50 was < 1 µM in assay [1], ≥ 25 µM in the assay with CHO-K1 cells (setting [2]) and < 1 µM at human PI3Kα protein.
On to `CCc1nn(C)cc1-c1cnc2ccc(Nc3cc(C(C)C)cnn3)nc2c1` [Example 0761], for which the IC50 in assay [1] is < 1 µM; in the assay with CHO-K1 cells (setting [2]), ≥ 25 µM; on human PI3Kα protein, < 1 µM.
As to `CC(C)c1cnnc(Nc2ccc3ncc(-c4cn(C)nc4CC4CCOCC4)cc3n2)c1` [Example 0773], the IC50 in assay [1] is < 1 µM; in the assay with CHO-K1 cells (setting [2]), ≥ 25 µM; on human PI3Kα protein, < 1 µM.
`CC(C)c1cnnc(Nc2ccc3ncc(-c4cn(C)nc4CC4CC4)cc3n2)c1` [Example 0781]: the IC50 was < 1 µM in assay [1]; ≥ 25 µM in the assay on CHO-K1 cells (CHO-K1, 24 h); < 1 µM at human PI3Kα protein.
With `CC(=O)c1ccc(Cn2cc(-c3cnc4ccc(Nc5cc(C(C)C)cnn5)nc4c3)cn2)cc1` [Example 0795], the IC50 was < 1 µM in assay [1], ≥ 25 µM in the assay on CHO-K1 cells (setting [2]) and < 1 µM at human PI3Kα protein.
On to `COC1CN(CC(Cn2cc(-c3cnc4ccc(Nc5cc(C(C)C)cnn5)nc4c3)cn2)OC)C1` (stereo not drawn) [Example 0812, N-(5-isopropylpyridazin-3-yl)-7-(1-(2-methoxy-3-(3-methoxyazetidin-1-yl)propyl)-1H-pyrazol-4-yl)-1,5-naphthyridine-2-amine], for which the IC50 is < 1 µM in assay [1], ≥ 25 µM in the assay on CHO-K1 cells (setting [2]) and < 1 µM on human PI3Kα protein.

The record behind these values is patent US9783536B2, “Nitrogen-containing heterocyclic compound or salt thereof” (FUJIFILM Corporation, priority 2013, dated 2017).
